Test results as given in US20100168054A1, “Functionalized Beta 1,6 Glucosamine Disaccharides and Process for Their Preparation” (OM PHARMA, priority 2006, published 2010).
One block for each molecule: values may come before it.

Legend:
[1] = tested on: human peripheral blood mononuclear cells (PBMC); assay: TNF-α secretion by human PBMC (ELISA); assay type: cell-based; settings: for TNF-α: 24 h; for TNF-α induction (in words): 0.2, 2, 20 μg/ml
Description: Peripheral blood from healthy donors (Centre de transfusion, Hôpital Universitaire, Geneva) was centrifuged to get the buffy coat. The buffy coat was mixed with Hanks' balanced saline solution (HBSS, Sigma, Buchs, Switzerland), layered over Ficoll Paque Plus (Amersham Pharmacia) to 1.077 g/mL and centrifuged (2800 rpm, 20° C., 25 min). Cells harvested from the interphase were washed twice in HBSS at 800 rpm for 15 min at room temperature and the pelleted cells were resuspended in HBSS. The cell counts were performed using a Neubauer cell. All cell cultures were performed in RPMI-1640 medium supplemented with penicillin (100 U/mL), streptomycin (100 μg/mL), L-glutamine (2 mmol/L) and 10% fetal calf serum (FCS), all obtained from Sigma. For in vitro stimulation, the cells were cultured at a concentration of 1×10^6 viable cells/well.
PBMC were incubated at 37° C. and under 5% CO2 atmosphere with the controls (see below) and with the products of the invention at 1, 5, and 20 μg/mL for IL-6, and at 0.2, 2, and 20 μg/mL for TNF-α secretion. Medium: RPMI alone.
The surpernatants of the cultures were harvested after 24 h and the concentration of IL-6 and TNF-α were measured by an enzyme-linked immunosorbent assay (ELISA) (Human IL-6 and TNF-α ELISA Set, BD OptEIA, San Diego, USA), according to the manufacturer instructions. The detection limits were 10 and 8 pg/mL respectively.

rat mast cells = assay: Histamine secretion (compound 48/80-stimulated); assay type: cell-based; settings: Rattus norvegicus, Mast cell, 2 min, compound 48/80 0.1 μg/ml, 37° C., read-out: IC50
Excerpt: Using an in vitro rat model of mast cell degranulation (proposed by the CRO CEREP, catalog number 2006: 771-c), we aimed to investigate whether the synthetic molecules OM-174-DP (compound 1b) OM-174-MP-PD (19), OM-174-MP-EP (33), OM-174-MP-CM (35c) and OM-174-MP-PR (17) would inhibit histamine secretion by compound 48/80-stimulated mastocytes. The protocol used is briefly summarized below:
The results are expressed as a percent of control specific activity ((measured specific activity/control specific activity)×100) obtained in the presence of the test compounds. The IC50 values (concentration causing a half-maximal inhibition of control specific activity) were determined by non-linear regression analysis of the inhibition curves generated with mean replicate values using Hill equation curve fitting (Y=D+[(A−D)/(1+(C/C50)nH)], where Y=specific activity, D=minimum specific activity, A=maximum specific activity, C=compound concentration, C50=IC50, and nH=slope factor). This analysis was performed using a software developed at Cerep (Hill software) and validated by comparison with data generated by the commercial software SigmaPlot® 4.0 for Windows® (© 1997 by SPSS Inc.).
In each experiment, the reference compound was tested concurrently with the test compounds in order to assess the assay suitability. It was tested at several concentrations (for IC50 value determination), and the data were compared with historical values determined at CEREP. The assay was rendered valid if the suitability criteria were met, in accordance with the corresponding Standard Operating Procedure.

murine macrophages = assay: Nitric oxide production by murine macrophages (Griess reaction); assay type: cell-based, C57/BL6 mice; settings: 22 h
Excerpt: Experimental assay of nitric oxide production by murine macrophages: Six-week old male C57/BL6 mice (six weeks old male, SPF quality, Charles Rivier, FR) were killed by CO2 inhalation. The hip, femur, and tibia from the posterior appendage were removed. The bone marrow was extracted from the lumen by injecting Dulbecco's Modified Eagle Medium (DH) through the bone after cutting both end portions. After washing, the stem cells were resuspended (40'000 cells/mL) in DH medium supplemented with 20% horse serum and 30% L929 cell supernatant. The cell suspension is incubated for 8 days in an incubator at 37° C. under 8% CO2 and moisture-saturated atmosphere. Macrophages are then detached with ice-cold PBS, washed and resuspended in DH medium supplemented with 5% fetal calf serum (FCS), amino acids and antibiotics (DHE medium). The cell density is adjusted to 700′000 cells/mL. Aqueous solutions of the products are serially diluted in DHE medium directly in microtiter plates. The products are tested in triplicates and each microtiter plate comprises a negative control composed of medium. The final volume in each well is […]. 100 μL of the cell suspension are added to the diluted products and the cells are incubated for 22 h in an incubator at 37° C., under 8% CO2 and a moisture-saturated atmosphere. At the end of the incubation period, 100 μL of supernatant are transferred to another microtiter plate and the nitrite concentration produced in each supernatant is determined by running a Griess reaction. 100 μL of Griess reagent (5 mg/mL of sulfanilamide+0.5 mg/mL of N-(1-naphtyl)ethylene-diamine hydrochloride) in 2.5% aqueous phosphoric acid, are added to each well. The microtiter plates are read with a spectrophotometer (SpectraMax Plus, Molecular Devices) at 562 nm against a reference at 690 nm. The nitrite concentration is proportional to nitric oxide content being formed. The nitrite content is determined based on a standard curve. The results are given as mean value±standard deviation and plotted as a dose response curve.

TLR2 = target: T1, TLR2 (Homo sapiens, UniProt O60603); assay: HEK-TLR2 IL-8 secretion; assay type: cell-based; settings: for IL-8 secretion, mean: 24 h; for activation of IL-8 secretion via TLR2 (in words): HEK-TLR2
T1 construct: host or cells: HEK293
Excerpt: The HEK293 cell line was chosen for its null or low basal expression of the TLR genes. These cells enable efficient monitoring of TLR activity using ELISA analysis such as IL-8 titration or reporter-based systems that monitor TLR-induced NF-κB activation. HEK-TLR2 cells (Invivogen, Toulouse, France) are engineered HEK293 cells stably transfected with multiple genes from the TLR2 pathway that include TLR2 and genes participating in the recognition or involved in the signaling cascade. These cells secrete IL-8 after TLR2 stimulation. The experiments were performed according to manufacturers' instructions. Briefly, 2×10^4 cells/well (200 ul RPMI) are incubated at 37° C. during 3 days (5% CO2). The medium is removed, and 90 ul RPMi+5% FCS is added to the wells Then the agonists and controls are added (10 ul/well). The cells return to the incubator for 24 hours. The supernatants are collected and the IL-8 ELISA is performed according to manufacturer's instructions

T1 sequence (O60603 21-784): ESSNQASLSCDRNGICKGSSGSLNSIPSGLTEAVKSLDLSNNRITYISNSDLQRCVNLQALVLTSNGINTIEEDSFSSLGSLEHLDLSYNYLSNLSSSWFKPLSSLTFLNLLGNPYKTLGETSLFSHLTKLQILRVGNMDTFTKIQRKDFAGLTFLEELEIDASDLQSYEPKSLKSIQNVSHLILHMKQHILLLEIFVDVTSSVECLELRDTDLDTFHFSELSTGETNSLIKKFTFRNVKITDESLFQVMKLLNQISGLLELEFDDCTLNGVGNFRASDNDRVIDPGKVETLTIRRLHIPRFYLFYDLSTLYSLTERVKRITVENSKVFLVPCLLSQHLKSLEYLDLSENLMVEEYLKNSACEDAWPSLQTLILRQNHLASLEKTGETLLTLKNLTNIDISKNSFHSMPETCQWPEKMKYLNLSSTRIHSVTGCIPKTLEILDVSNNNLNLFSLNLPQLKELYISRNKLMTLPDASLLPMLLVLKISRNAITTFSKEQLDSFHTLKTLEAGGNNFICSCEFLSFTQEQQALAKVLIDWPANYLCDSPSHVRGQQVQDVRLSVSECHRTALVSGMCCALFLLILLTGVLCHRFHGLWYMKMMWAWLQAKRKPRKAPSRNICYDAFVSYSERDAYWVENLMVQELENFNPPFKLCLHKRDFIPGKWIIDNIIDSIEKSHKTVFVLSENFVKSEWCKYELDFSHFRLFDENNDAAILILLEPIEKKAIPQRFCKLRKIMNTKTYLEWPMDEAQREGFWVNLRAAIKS

SMILES: CCCCCCCCCCCC(=O)O[C@H](CCCCCCCCCCC)CC(=O)NC1C(OCC2OC(OP(=O)(O)O)C(NC(=O)C[C@H](O)CCCCCCCCCCC)C(O)C2O)OC(CO)C(OP(=O)(O)O)C1O (stereo partly drawn) [compound 1b, 2-Deoxy-6-O-[2-deoxy-4-O-(dihydroxyphosphoryl)-2-[(R)-3-dodecanoyloxytetradecanoylamino]-β-D-glucopyranosyl]-2-[(R)-3-hydroxytetradecanoylamino]-α-D-glucopyranosyl dihydrogenophosphate]
TNF-α ([1]; 0.2 μg/ml): 37 pg/mL | TNF-α ([1]; 2 μg/ml): 117 pg/mL | TNF-α ([1]; 20 μg/ml): 1105 pg/mL | TNF-α induction (in words) [1]: induced high levels of TNF-α | IC50 (rat mast cells): 86 nM

SMILES: CCCCCCCCCCCC(=O)O[C@H](CCCCCCCCCCC)CC(=O)N[C@H]1[C@H](OC[C@H]2O[C@H](OCC(O)CO)[C@H](NC(=O)C[C@H](O)CCCCCCCCCCC)[C@@H](O)[C@@H]2O)O[C@H](CO)[C@@H](OP(=O)(O)O)[C@@H]1O (stereo partly drawn) [compound 19, 2,3-Dihydroxypropyl-2-Deoxy-6-O-[2-deoxy-4-O-(dihydroxyphosphoryl)-2-[(R)-3-dodecanoyloxytetradecanoylamino]-β-D-glucopyranosyl]-2-[(R)-3-hydroxytetradecanoylamino]-α-D-glucopyranoside]
TNF-α ([1]; 0.2 μg/ml): 9.2 pg/mL | TNF-α ([1]; 2 μg/ml): 5.1 pg/mL | TNF-α ([1]; 20 μg/ml): 11.2 pg/mL | dose from which active (nitric oxide production) (murine macrophages): ≥ 0.01 µg/mL | nitric oxide production (in words), FIG. 25 (murine macrophages): able to induce high levels of nitric oxide | IC50 (rat mast cells): 160 nM | IL-8 secretion, mean (TLR2; 14 ng/ml): 0.06 pg/mL | IL-8 secretion, mean (TLR2; 41 ng/ml): 0.15 pg/mL | IL-8 secretion, mean (TLR2; 124 ng/ml): 0.16 pg/mL | IL-8 secretion, mean (TLR2; 370 ng/ml): 0.20 pg/mL | IL-8 secretion, mean (TLR2; 1111 ng/ml): 0.27 pg/mL | IL-8 secretion, mean (TLR2; 3333 ng/ml): 0.37 pg/mL | IL-8 secretion, mean (TLR2; 10000 ng/ml): 0.62 pg/mL

The next lines start with results.

IL-8 secretion, mean (TLR2; 14 ng/ml): 0.07 pg/mL | IL-8 secretion, mean (TLR2; 41 ng/ml): 0.09 pg/mL | IL-8 secretion, mean (TLR2; 124 ng/ml): 0.15 pg/mL | IL-8 secretion, mean (TLR2; 370 ng/ml): 0.12 pg/mL | IL-8 secretion, mean (TLR2; 1111 ng/ml): 0.15 pg/mL | IL-8 secretion, mean (TLR2; 3333 ng/ml): 0.19 pg/mL | IL-8 secretion, mean (TLR2; 10000 ng/ml): 0.27 pg/mL
SMILES: CCCCCCCCCCCC(=O)O[C@H](CCCCCCCCCCC)CC(=O)N[C@H]1[C@H](OC[C@H]2O[C@H](O)[C@H](NC(=O)C[C@H](O)CCCCCCCCCCC)[C@@H](O)[C@@H]2O)O[C@H](CO)[C@@H](OP(=O)(O)O)[C@@H]1O [compound 16, 2-Deoxy-6-O-[2-deoxy-4-O-(dihydroxyphosphoryl)-2-[(R)-3-dodecanoyloxytetradecanoylamino]-β-D-glucopyranosy]-2-[(R)-3-hydroxytetradecanoylamino]-α-D-glucopyranose]
TNF-α ([1]; 0.2 μg/ml): 0.69 pg/mL | TNF-α ([1]; 2 μg/ml): 49 pg/mL | TNF-α ([1]; 20 μg/ml): 1705 pg/mL | TNF-α induction (in words) [1]: induced high levels of TNF-α | nitric oxide production (in words), FIG. 25 (murine macrophages): able to induce high levels of nitric oxide

IC50 (rat mast cells): 1600 nM | IL-8 secretion, mean (TLR2; 14 ng/ml): 0.19 pg/mL | IL-8 secretion, mean (TLR2; 41 ng/ml): 0.20 pg/mL | IL-8 secretion, mean (TLR2; 124 ng/ml): 0.24 pg/mL | IL-8 secretion, mean (TLR2; 370 ng/ml): 0.25 pg/mL | IL-8 secretion, mean (TLR2; 1111 ng/ml): 0.39 pg/mL | IL-8 secretion, mean (TLR2; 3333 ng/ml): 0.88 pg/mL | IL-8 secretion, mean (TLR2; 10000 ng/ml): 2.02 pg/mL | activation of IL-8 secretion via TLR2 (in words) (TLR2): able to activate IL-8 secretion via TLR2
SMILES: CCCCCCCCCCCC(=O)O[C@H](CCCCCCCCCCC)CC(=O)N[C@H]1[C@H](OC[C@H]2O[C@H](OCCC)[C@H](NC(=O)C[C@H](O)CCCCCCCCCCC)[C@@H](O)[C@@H]2O)O[C@H](CO)[C@@H](OP(=O)(O)O)[C@@H]1O [compound 17, Propyl-2-Deoxy-6-O-[2-deoxy-4-O-(dihydroxyphosphoryl)-2-[(R)-3-dodecanoyloxytetradecanoylamino]-β-D-glucopyranosyl]-2-[(R)-3-hydroxytetradecanoylamino]-α-D-glucopyranoside]
TNF-α ([1]; 0.2 μg/ml): 46 pg/mL | TNF-α ([1]; 2 μg/ml): 474 pg/mL | TNF-α ([1]; 20 μg/ml): 2114 pg/mL | TNF-α induction (in words) [1]: induced high levels of TNF-α | nitric oxide production (in words), FIG. 25 (murine macrophages): able to induce high levels of nitric oxide

IC50 (rat mast cells): 210 nM | IL-8 secretion, mean (TLR2; 14 ng/ml): 0.12 pg/mL | IL-8 secretion, mean (TLR2; 41 ng/ml): 0.18 pg/mL | IL-8 secretion, mean (TLR2; 124 ng/ml): 0.23 pg/mL | IL-8 secretion, mean (TLR2; 370 ng/ml): 0.31 pg/mL | IL-8 secretion, mean (TLR2; 1111 ng/ml): 0.68 pg/mL | IL-8 secretion, mean (TLR2; 3333 ng/ml): 1.66 pg/mL | IL-8 secretion, mean (TLR2; 10000 ng/ml): 3.64 pg/mL | activation of IL-8 secretion via TLR2 (in words) (TLR2): able to activate IL-8 secretion via TLR2
SMILES: CCCCCCCCCCCC(=O)O[C@H](CCCCCCCCCCC)CC(=O)N[C@H]1[C@H](OC[C@H]2O[C@H](OCCOP(=O)(O)O)[C@H](NC(=O)C[C@H](O)CCCCCCCCCCC)[C@@H](O)[C@@H]2O)O[C@H](CO)[C@@H](OP(=O)(O)O)[C@@H]1O [compound 33, 2-(Phosphonooxy)ethyl-2-Deoxy-6-O-[2-deoxy-4-O-(dihydroxyphosphoryl)-2-[(R)-3-dodecanoyloxytetradecanoylamino]-β-D-glucopyranosyl]-2-[(R)-3-hydroxytetradecanoylamino]-α-D-glucopyranoside]
TNF-α ([1]; 0.2 μg/ml): 8.0 pg/mL | TNF-α ([1]; 2 μg/ml): 8.3 pg/mL | TNF-α ([1]; 20 μg/ml): 21 pg/mL
